Here are results for three molecules from patent publication US8314255B2, “Use of phthalimide and/or sulphonamide derivatives in the treatment of diseases which require reducing the TNF- α levels and an exogenous source of nitric oxide, phthalimide derivatives, sulphonamide derivatives, and a method for obtaining a sulphonamide derivative” (priority 2007, dated 2012).

Data set [1] concerns mouse ear edema induced by capsaicin. The data set can be described thus: Mouse ear edema assay induced by capsaicin. Type of data set: in vivo. To be noted: 300 μmol/Kg i.p., capsaicin 250 μg/ear 1 hour after administration. As for the experimental part:
This assay is characterized by an acute inflammatory response of the ear, with development of edema, and it was performed in order to evaluate the anti-inflammatory activity of the synthesized compounds.
In this assay, indomethacin was used as a control at 100 μmol/Kg, and the phthalimide derivatives were firstly evaluated at 300 μmol/Kg via i.p. From table 4, it can be observed that compounds IC and IE show an ear edema inhibition percentage higher than 64%. […] The other compounds, however, show a similar activity when compared to indomethacin (FIG. 01), taking into consideration the standard error.
This assay was performed using Swiss mice from both genders weighing from 18 to 30 grams. The animals were fasted for 8 hours with free access to water. This assay consists in locally administering (right ear) 20 μl of a capsaicin solution (250 μg/ear) diluted in acetone, 1 hour after the i.p. administration (diluted in 0.5% gum arabic). The left ear (control) received the carrier in which capsaicin was diluted (acetone) and the right ear received capsaicin. This assay is characterized by an acute inflammatory response of the ear, with development of edema. The animals were sacrificed and their ears were weighted to obtain the inflammation index. A biopsy (8 mm in diameter) of the ear was carried out. Next, the weights of the inflamed ears were compared against the weights of the contralateral ear (control ear) which were not treated with the phlogistic agent. The edema inhibition percentage was calculated by subtracting the ear treated with the carrier by that treated with capsaicin from each group of animals treated with the test substances, and then it was divided by the difference between the groups of the irritating agents and the control groups.

Data set [2] concerns Salmonella typhimurium TA102. The data set is described as follows: AMES test, mutagenic evaluation in Salmonella typhimurium TA102 strain with/without metabolic activation (S9). Type of data set: cell-based. As to the method: The procedure was firstly developed by (MARON, D. M. and AMES, B. N. Mut. Res. v. 113, pp. 173-215, 1983)
For this assay, Salmonella typhimurium TA100 and TA102 strains from the mutagenicity laboratory of the “Faculdade de Ciências Farmacêuticas—UNESP Araraquara” were used. Such strains have the following characteristics: (AMES, 1983)
The positive controls are mutagenic compounds specific for each strain and test condition, with 25 μL/plate of sodium azide (1.25 μg/plate) and 100 μL of mitomycin (0.5 μg/plate) being the controls for TA100 and TA102, respectively, in the absence of metabolic activation. For assays with metabolic activation, the positive control for TA100 is 50 μL 2-antramine (1.25 μg/plate) and for TA102 it is 50 μL 2-aminofluorene (1.25 μg/plate).
The preincubation method was used.
In laminar flow, Salmonella typhimurium (TA100 and TA 102) strains were inoculated individually with a platinum loop, in the respective nutrient broths and maintained at 37° C., under constant stirring (160 rpm) during 14 hours, in order to achieve a density of 1 to 2×10^9 bacteria/mL.
Different concentrations of the compounds were added into 100 μL of 0.2M phosphate buffer pH 7.4 (or 500 μL of the mixture S9 in metabolic activation assays) and incubated for 20-30 minutes at 37° C. Solutions containing the compounds had DMSO as the solvent. Thereafter, 2 mL of top agar supplemented with traces of histidine and biotin was added, homogenized and plated in glycosylated minimum medium. After solidification of the top agar, the plates were incubated for 48 hours at a 37° C. Then, the counting of the number of revertant colonies per plate was performed. All tested concentrations, positive and negative controls were run in triplicate.
After 48 hours, the revertant colonies were counted manually, and the protoCOL Colony Counter Version 3.15.630 (1998-2001) SYNBIOSIS LTD system was used for the positive control.
The final data obtained from the assay was analyzed using the statistical software Salanal (Salmonella Assay Analysis) version 1.0 from the Research Triangle Institute, RTP, North Carolina, USA. Such software allows the dose-response effect to be evaluated by means of analysis of variance (ANOVA-test F) computations between the measurement of the number of revertants at the different tested concentrations (doses) and the negative control, followed by a linear regression. The software model chosen for analyzing the data was Bernstein's (BERNSTEIN, L. et al. Mutat. Res. v. 97, p. 267-281, 1982). The slope of the straight line from the linear portion of the dose-response curve is also provided by this software and corresponds to the number of revertants induced per measurement unit of the analyzed sample.
From the results, the mutagenicity ratio (MR) was computed for each analyzed dose from each compound. MR is given by the following equation:
MR=average number of revertants per test plate (spontaneous+induced revertants) […] average number of revertants per plate of the negative control (spontaneous revertants)
The spontaneous growing means that the number of revertants which developed on the plate, regardless of being induced or not, wherein values higher or equal to 2 are considered as a positive response (VALENT, G. V. et al. Env. Toxicol. Water Quality. v. 8, p. 371-381, 1993).
The mutagenicity test with metabolic activation system was performed with a microsomal fraction S9 (S9 mix) prepared from a liver homogenizate from Sprague Dawley rats, previously treated with Aroclor 1254, acquired in the freeze-dried form.
The procedure for this assay is the same, however, instead of the buffer, 500 μL of the S9 mixture should be added.
The S9 mixture has a viability of 4 hours from preparation when put on ice. The plates are then incubated for 48 hours at 37° C. After the required time has elapsed, the counting of the revertant colonies was carried out. All tested concentrations, positive and negative controls were run in triplicate.

Data set [3] concerns leukocyte infiltration, peritonitis induced by thioglycolate. The data set is described as follows: Peritonitis assay induced by 3% thioglycolate. Type of data set: in vivo. The conditions noted are these: 300 μMol/Kg orally, mouse, 3% thioglycolate i.p., 4 h. As for the experimental part: In a second assay, the number of total leukocytes (10^6/mL) was evaluated in order to evaluate the ability to inhibit their infiltration in the inflammatory process.
The mice were treated with the substances being analyzed or carrier and after 1 h of oral administration, they were simultaneously subjected to the peritonitis assay, by administering intraperitoneally 1 ml of a 3% thioglycolate solution. 4 h after the administration of thioglycolate, the peritoneal cavity was washed with 3 ml of a HANKS solution (Balanced salt solution, free of Ca^2+ and Mg^2+). Next, the peritoneal wash was analyzed and the total counting of white blood cells was made in a Newbauer's chamber under an optical microscope with a 40× objective.

As to `O=C1c2ccccc2C(=O)N1CO[N+](=O)[O-]` [Compound IA, (1,3-dioxo-1,3-dihydro-2H-isoindol-2-yl)methyl nitrate], in data set [1], the “Average inhibition % (ear edema)” value came out at 53.75%. In data set [2] (TA102 (+S9)), the “concentration above which toxicity is observed (reduction on the number of revertants per plate)” value was “higher than 56 nmol”. The “mutagenicity ratio (MR)” value in data set [2] (TA 102, +S9, 7.25 nmol/plate) is recorded as 1.4; in data set [2] (TA 102, +S9, 14.5 nmol/plate), 1.5; in data set [2] (TA 102, +S9, 29 nmol/plate) it was 1.8; in data set [2] (TA 102, +S9, 56 nmol/plate) it was 2.34; in data set [2] (TA 102, +S9, 112 nmol/plate) it was 1.64; in data set [2] (TA 102, −S9, 7.25 nmol/plate) it was 1.33. Moreover, the “mutagenicity ratio (MR)” value was 1.26 in data set [2] (TA 102, −S9, 14.5 nmol/plate); 1.32 in data set [2] (TA 102, −S9, 29 nmol/plate); 0.77 in data set [2] (TA 102, −S9, 56 nmol/plate); 0.71 in data set [2] (TA 102, −S9, 112 nmol/plate). Besides, the “number of revertants per plate” value in data set [2] (TA 102, +S9, 7.25 nmol/plate) is on record as 298 ± 11.3 revertants/plate; in data set [2] (TA 102, +S9, 14.5 nmol/plate), 320.8 ± 17 revertants/plate; in data set [2] (TA 102, +S9, 29 nmol/plate) it was 385 ± 21.8 revertants/plate; in data set [2] (TA 102, +S9, 56 nmol/plate), 499 ± 8.9 revertants/plate; in data set [2] (TA 102, +S9, 112 nmol/plate), 351.2 ± 12 revertants/plate; in data set [2] (TA 102, −S9, 7.25 nmol/plate) it was 263.7 ± 15 revertants/plate. Further, the “number of revertants per plate” value in data set [2] (TA 102, −S9, 14.5 nmol/plate) came out at 249.7 ± 12 revertants/plate; in data set [2] (TA 102, −S9, 29 nmol/plate), 261.3 ± 20 revertants/plate; in data set [2] (TA 102, −S9, 56 nmol/plate), 153 ± 21 revertants/plate; in data set [2] (TA 102, −S9, 112 nmol/plate), 141 ± 18 revertants/plate. For the same molecule, the “Cell Number avg (×106), total leukocytes” value in data set [3] is 4.9 ×106. Also, the “Inhibition % (leukocyte infiltrate)” value in data set [3] was 12.5%.
Regarding `O=C1c2ccccc2C(=O)N1c1ccc(CCO[N+](=O)[O-])cc1` [Compound IE, 2-[4-(1,3-dioxo-1,3-dihydro-2H-isoindol-2-yl)phenyl]ethyl nitrate], the “mutagenicity ratio (MR)” value in data set [2] (TA 102, +S9, 0.12 μmol/plate) was determined as 0.9; in data set [2] (TA 102, +S9, 0.25 μmol/plate), 0.8; in data set [2] (TA 102, +S9, 0.5 μmol/plate), 1.09; in data set [2] (TA 102, +S9, 1 μmol/plate) it was 1.25; in data set [2] (TA 102, +S9, 2 μmol/plate), 1.2; in data set [2] (TA 102, −S9, 0.12 μmol/plate), 1.29. Besides, the “mutagenicity ratio (MR)” value was 1.32 in data set [2] (TA 102, −S9, 0.25 μmol/plate); 1.35 in data set [2] (TA 102, −S9, 0.5 μmol/plate); 1.34 in data set [2] (TA 102, −S9, 1 μmol/plate); 1.02 in data set [2] (TA 102, −S9, 2 μmol/plate). In addition, the “number of revertants per plate” value in data set [2] (TA 102, +S9, 0.12 μmol/plate) turned out to be 335.3 ± 11 revertants/plate; in data set [2] (TA 102, +S9, 0.25 μmol/plate), 295.3 ± 28 revertants/plate; in data set [2] (TA 102, +S9, 0.5 μmol/plate), 406 ± 14.1 revertants/plate; in data set [2] (TA 102, +S9, 1 μmol/plate) it was 465 ± 10.6 revertants/plate; in data set [2] (TA 102, +S9, 2 μmol/plate), 447 ± 19.8 revertants/plate; in data set [2] (TA 102, −S9, 0.12 μmol/plate), 256 ± 6.9 revertants/plate. The “number of revertants per plate” value is recorded as 262 ± 19.1 revertants/plate in data set [2] (TA 102, −S9, 0.25 μmol/plate); 266.7 ± 18 revertants/plate in data set [2] (TA 102, −S9, 0.5 μmol/plate); 265.7 ± 10 revertants/plate in data set [2] (TA 102, −S9, 1 μmol/plate); 201 ± 4.7 revertants/plate in data set [2] (TA 102, −S9, 2 μmol/plate). For the same molecule, in data set [3], the “Cell Number avg (×106), total leukocytes” value is on record as 4.13 ×106. For the same molecule, the “Inhibition % (leukocyte infiltrate)” value in data set [3] came to 26.25%.
For the molecule `Nc1ccc(S(=O)(=O)NO)cc1` [Compound IIA, 4-amino-N-hydroxybenzenesulphonamide], in data set [1], the “Average inhibition % (ear edema)” value is 49.24%. Also, the “mutagenicity ratio (MR)” value came to 1.03 in data set [2] (TA 102, +S9, 0.98 μmol/plate); 0.87 in data set [2] (TA 102, +S9, 1.96 μmol/plate); 1.13 in data set [2] (TA 102, +S9, 3.92 μmol/plate); 1.03 in data set [2] (TA 102, +S9, 7.85 μmol/plate); 0.8 in data set [2] (TA 102, +S9, 15.7 μmol/plate); 1.12 in data set [2] (TA 102, −S9, 0.98 μmol/plate). For the same molecule, the “mutagenicity ratio (MR)” value in data set [2] (TA 102, −S9, 1.96 μmol/plate) is 1.22; in data set [2] (TA 102, −S9, 3.92 μmol/plate) it was 1.27; in data set [2] (TA 102, −S9, 7.85 μmol/plate) it was 1.17; in data set [2] (TA 102, −S9, 15.7 μmol/plate), 1.06. The “number of revertants per plate” value worked out at 385 ± 33.1 revertants/plate in data set [2] (TA 102, +S9, 0.98 μmol/plate); 323 ± 5.54 revertants/plate in data set [2] (TA 102, +S9, 1.96 μmol/plate); 423.7 ± 22 revertants/plate in data set [2] (TA 102, +S9, 3.92 μmol/plate); 387 ± 14.4 revertants/plate in data set [2] (TA 102, +S9, 7.85 μmol/plate); 300 ± 4.9 revertants/plate in data set [2] (TA 102, +S9, 15.7 μmol/plate); 222 ± 12 revertants/plate in data set [2] (TA 102, −S9, 0.98 μmol/plate). For the same molecule, the “number of revertants per plate” value in data set [2] (TA 102, −S9, 1.96 μmol/plate) amounted to 241 ± 13 revertants/plate; in data set [2] (TA 102, −S9, 3.92 μmol/plate) it was 251 ± 19.2 revertants/plate; in data set [2] (TA 102, −S9, 7.85 μmol/plate), 232 ± 13.1 revertants/plate; in data set [2] (TA 102, −S9, 15.7 μmol/plate), 210 ± 23 revertants/plate. In addition, the “Cell Number avg (×106), total leukocytes” value in data set [3] is 4.0 ×106. Also, the “Inhibition % (leukocyte infiltrate)” value in data set [3] was determined as 28.57%.
